This passage reports IC50 results from US20230135635A1, “INHIBITORS OF ULK1/2 AND METHODS OF USING SAME” (SALK INSTITUTE FOR BIOLOGICAL STUDIES, priority 2020, published 2023).

pIC50: −log10 of the molar value.

One test deals with T1, recombinant human ULK1 protein (1-649) (Homo sapiens, UniProt O75385).
T1 construct: recombinant human ULK1 protein (1-649, SignalChem #U01-11G); purchased SignalChem U01-11G
T1 sequence (O75385 1-649): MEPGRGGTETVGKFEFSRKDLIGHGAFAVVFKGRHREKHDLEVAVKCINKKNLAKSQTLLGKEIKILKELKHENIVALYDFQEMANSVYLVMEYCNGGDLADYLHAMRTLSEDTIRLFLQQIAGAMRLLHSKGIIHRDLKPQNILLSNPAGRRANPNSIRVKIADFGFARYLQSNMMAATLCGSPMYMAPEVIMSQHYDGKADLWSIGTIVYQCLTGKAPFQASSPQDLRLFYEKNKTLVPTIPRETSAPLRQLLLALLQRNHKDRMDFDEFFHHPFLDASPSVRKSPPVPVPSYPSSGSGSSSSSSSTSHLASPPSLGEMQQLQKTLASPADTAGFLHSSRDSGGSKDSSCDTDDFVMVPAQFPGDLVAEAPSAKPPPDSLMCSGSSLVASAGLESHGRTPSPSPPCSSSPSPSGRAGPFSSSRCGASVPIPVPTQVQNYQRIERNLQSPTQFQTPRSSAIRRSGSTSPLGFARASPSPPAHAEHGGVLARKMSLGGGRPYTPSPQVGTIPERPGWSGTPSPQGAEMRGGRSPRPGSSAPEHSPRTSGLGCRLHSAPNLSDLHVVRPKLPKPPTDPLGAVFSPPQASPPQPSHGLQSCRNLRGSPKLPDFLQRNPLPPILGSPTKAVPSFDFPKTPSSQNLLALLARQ
Description: ULK1 inhibition assay (ADP Glo). Format: biochemical. The conditions noted are these: Table 1; 25 uM ATP, MBP substrate, one hour. The procedure:
Illustrative compounds of Formula I and related analogs are shown in Table 1 (along with their respective IC50 values for ULK1 inhibition assays). For ADP Glo assay, IC50s are represented nM, with A representing IC50<1 nM, B representing 10 nM>IC50>1 nM, and C representing IC50>10 nM. NT indicates the compound was not tested. ULK1 inhibition assays were performed in a 5 uL reaction volume containing 2 ug/mL recombinant human ULK1 protein (1-649, SignalChem #U01-11G) and 80 ug/mL myelin basic protein (MBP, Sigma-Aldrich #M1891) in the presence of 25 uM ATP (Sigma-Aldrich A7699). ULK 1 inhibition was assessed after one hour. Compounds were tested in triplicate in a 16-dose IC50 mode with 3-fold serial dilution and a starting dose of 30 uM. Staurosporine, a non-selective protein kinase inhibitor, was used in the assay as a positive control.
According to another embodiment, the present disclosure provides methods of producing the above-defined compounds. The compounds may be synthesized using any suitable techniques. Advantageously, these compounds are conveniently synthesized from readily available starting materials. Synthetic chemistry transformations and methodologies useful in synthesizing the compounds described herein are known in the art and include, for example, those described in R. Larock, Comprehensive Organic Transformations (1989); T. W. Greene and P. G. M. Wuts, Protective Groups in Organic Synthesis, 2d. Ed. (1991); L. Fieser and M. Fieser, Fieser and Fieser's Reagents for Organic Synthesis (1994); and L. Paquette, ed., Encyclopedia of Reagents for Organic Synthesis (1995).). In general, synthesis and measurements of ULK1 inhibitory activity of the compounds described herein was performed using method analogous to those previously described in PCT International Application No. PCT/US2015/046777 which is hereby incorporated by reference in its entirety.
On the technique in general: ADP-Glo turns the ADP formed in a reaction into a luminescent signal.
Regarding `Nc1cnc(Nc2ccc3c(c2)CCNC3)nc1NC1CC1` [Compound A59], the pIC50 is less than 8.00.
For the compound `CNC(=O)c1ccccc1Nc1nc(Nc2ccc3c(c2)CN(CC(C)O)CC3)ncc1Br` (stereo not drawn) [Compound A157, 2-{5-Bromo-2-[2-(2-hydroxy-propyl)-1,2,3,4-tetrahydro-isoquinolin-7-ylamino]-pyrimidin-4-ylamino}-N-methyl-benzamide], the pIC50 is less than 8.00.
Turning to `Nc1ccc(CN2CCc3cc(Nc4ncc(C(F)(F)F)c(NC5CC5)n4)ccc3C2)cc1` [Compound A112], the pIC50 was less than 8.00.
The same measure, in the same setting: with `CNC(=O)c1ccccc1Nc1nc(Nc2ccc3c(c2)CN(CCC(N)=O)CC3)ncc1Br` [Compound A166, 2-{5-Bromo-2-[2-(2-carbamoyl-ethyl)-1,2,3,4-tetrahydro-isoquinolin-7-ylamino]-pyrimidin-4-ylamino}-N-methyl-benzamide] the figure was less than 8.00.
For the compound `CNC(=O)c1ccccc1Nc1nc(Nc2ccc3c(c2)CN(CCN)CC3)ncc1Br` [Compound A151, 2-{2-[2-(2-Amino-ethyl)-1,2,3,4-tetrahydro-isoquinolin-7-ylamino]-5-bromo-pyrimidin-4-ylamino}-N-methyl-benzamide], the pIC50 was less than 8.00.
Take `NC(=O)CN1CCc2cc(Nc3ncc(C(F)(F)F)c(NC4CC4)n3)ccc2C1` [Compound A39]: the pIC50 is less than 8.00.
Regarding `CNC(=O)c1ccccc1Nc1nc(Nc2ccc3c(c2)CN(S(N)(=O)=O)CC3)ncc1Br` [Compound A161, 2-[5-Bromo-2-(2-sulfamoyl-1,2,3,4-tetrahydro-isoquinolin-7-ylamino)-pyrimidin-4-ylamino]-N-methyl-benzamide], the pIC50 was less than 8.00.
For `CC(C)(O)CN1CCc2cc(Nc3ncc(C(F)(F)F)c(NC4CC4)n3)ccc2C1` [Compound A18], the pIC50 is more than 9.00.
As to `CC(C)(C)OC(=O)N1CCc2ccc(Nc3ncc(C(F)(F)F)c(NC4CC4)n3)cc2C1` [Compound A15], the pIC50 was 8.00 to 9.00.
Take `Cn1cnc(CN2CCc3ccc(Nc4ncc(C(F)(F)F)c(NC5CC5)n4)cc3C2)c1` [Compound A111]: the pIC50 is 8.00 to 9.00.
For `FC(F)(F)c1cnc(Nc2ccc3c(c2)CN(CCN2CCOCC2)CC3)nc1NC1CC1` [Compound A97], the pIC50 is 8.00 to 9.00.
For the compound `CN1CCC(N2CCc3cc(Nc4ncc(C(F)(F)F)c(NC5CC5)n4)ccc3C2)C1` (stereo not drawn) [Compound A114], the pIC50 is more than 9.00.
For `CC(C)(C)OC(=O)C1Cc2ccc(Nc3ncc(C(F)(F)F)c(NC4CC4)n3)cc2C1` (stereo not drawn) [Compound A54], the pIC50 is 8.00 to 9.00.
With `COc1ccc(CN2CCc3cc(Nc4ncc(C(F)(F)F)c(NC5CC5)n4)ccc3C2)cc1` [Compound A113], the pIC50 is more than 9.00.
The same measure, in the same setting: the result for `FC(F)(F)c1cnc(Nc2ccc3c(c2)CCN(Cc2ccc[nH]2)C3)nc1NC1CC1` [Compound A93] reads 8.00 to 9.00; that for `CNC(=O)c1ccccc1Oc1nc(Nc2ccc3c(c2)CCN(CCOC)C3)ncc1C(F)(F)F` [Compound A121, 2-((2-((2-(2-Methoxyethyl)-1,2,3,4-tetrahydroisoquinolin-6-yl)amino)-5-(trifluoromethyl)pyrimidin-4-yl)oxy)-N-methylbenzamide], less than 8.00; that for `CNC(=O)c1ccccc1Nc1nc(Nc2ccc3c(c2)CN(CC(=O)N2CCOCC2)CC3)ncc1Br` [Compound A148, 2-{5-Bromo-2-[2-(2-morpholin-4-yl-2-oxo-ethyl)-1,2,3,4-tetrahydro-isoquinolin-7-ylamino]-pyrimidin-4-ylamino}-N-methyl-benzamide], less than 8.00.
On to `CNC(=O)c1ccccc1Nc1nc(Nc2ccc3c(c2)CCNC3)ncc1Br` [Compound A126, 2-[5-Bromo-2-(1,2,3,4-tetrahydro-isoquinolin-6-ylamino)-pyrimidin-4-ylamino]-N-methyl-benzamide], for which the pIC50 is less than 8.00.
`CNC(=O)c1ccccc1Nc1nc(Nc2ccc3c(c2)CN(C(=O)N2CCN(C)CC2)CC3)ncc1Br` [Compound A150, 2-{5-Bromo-2-[2-(4-methyl-piperazine-1-carbonyl)-1,2,3,4-tetrahydro-isoquinolin-7-ylamino]-pyrimidin-4-ylamino}-N-methyl-benzamide]: the pIC50 was less than 8.00.
Turning to `FC(F)(F)c1cnc(Nc2ccc3c(c2)CN(C2COC2)CC3)nc1NC1CC1` [Compound A102], the pIC50 is 8.00 to 9.00.
With `N[C@H](CO)C(=O)N1CCc2cc(Nc3ncc(C(F)(F)F)c(NC4CC4)n3)ccc2C1` (stereo in doubt) [Compound A48], the pIC50 was more than 9.00.
For `NCC(=O)N1CCc2cc(Nc3ncc(C(F)(F)F)c(NC4CC4)n3)ccc2C1` [Compound A27], the pIC50 is more than 9.00.

The test is the same for the next values; noted with them: Table 2.
Regarding `COc1cc(Nc2ncc(Br)c(Oc3ccccc3C(=O)NCCS(C)(=O)=O)n2)cc(OC)c1OC` [Compound B8], the pIC50 is less than 6.00.
As to `COC(=O)c1ccccc1Oc1nc(Nc2cc(OC)c(OC)c(OC)c2)ncc1Br` [Compound B2], the pIC50 is more than 7.00.
The same measure, in the same setting: with `COC(=O)c1ccccc1Oc1nc(Nc2ccc(CO)cc2)ncc1Br` [Compound B38] the figure was less than 6.00.
As for `COC(=O)c1ccccc1Oc1nc(Nc2cnc3[nH]ccc3c2)ncc1Br` [Compound B18], the pIC50 was less than 6.00.
For `COC(=O)c1ccccc1Oc1nc(Nc2ccc3c(c2)CCO3)ncc1Br` [Compound B30], the pIC50 was less than 6.00.
Still for that read-out and setting: with `COC(=O)c1ccccc1Oc1nc(Nc2cccc(C(N)=O)c2)ncc1Br` [Compound B21] the figure was less than 6.00.
As to `COc1cc(Nc2ncc(Br)c(Oc3ccccc3C(=O)N(C)CCO)n2)cc(OC)c1OC` [Compound B3], the pIC50 was 6.00 to 7.00.
On the same count and under the same terms, with `COC(=O)c1ccccc1Oc1nc(Nc2ccc(N3CCCC3)cc2)ncc1Br` [Compound B27] the figure was less than 6.00.

Staying with this test, now noted: Table 3.
As to `NC(=O)c1ccc(Nc2ncc(Br)c(Nc3ccccc3CO)n2)cc1` [Compound C14], the pIC50 is 7.00 to 8.30.
Turning to `CNC(=O)c1ccccc1Nc1nc(Nc2ccc(OC(F)(F)F)cc2)ncc1Br` [Compound E19, 2-((5-Bromo-2-((4-(trifluoromethoxy)phenyl)amino)pyrimidin-4-yl)amino)-N-methylbenzamide], the pIC50 was less than 7.00.
Turning to `CNC(=O)c1ccccc1Nc1nc(Nc2cc(OC)cc(OC)c2)ncc1Br` [Compound E17, 2-((5-Bromo-2-((3,5-dimethoxyphenyl)amino)pyrimidin-4-yl)amino)-N-methylbenzamide], the pIC50 was 7.00 to 8.30.
`CN(C)c1ccc(Nc2ncc(Br)c(Nc3ccccc3CO)n2)cc1` [Compound C11]: the pIC50 was more than 8.30.
Turning to `OCc1ccccc1Nc1nc(Nc2ccccc2)ncc1Br` [Compound C4], the pIC50 is less than 7.00.
Consider `OCCN(CCO)c1ccc(Nc2ncc(Br)c(Nc3ccccc3CO)n2)cc1` [Compound C16], for which the pIC50 is more than 8.30.
Take `COc1cc(Nc2ncc(Br)c(Oc3ccc(NC(=O)CC(=O)Nc4ccc(F)cc4)cc3F)n2)cc(OC)c1OC` [Compound C29, N^1-(4-((5-Bromo-2-((3,4,5-trimethoxyphenyl)amino)pyrimidin-4-yl)oxy)-3-fluorophenyl)-N^3-(4-fluorophenyl)malonamide]: the pIC50 is less than 7.00.
For the compound `CNC(=O)c1ccccc1Nc1nc(Nc2cccc(OC(F)(F)F)c2)ncc1Br` [Compound E21, 2-((5-Bromo-2-((3-(trifluoromethoxy)phenyl)amino)pyrimidin-4-yl)amino)-N-methylbenzamide], the pIC50 was 7.00 to 8.30.
As to `CNC(=O)c1ccccc1Nc1nc(Nc2ccc(N3CCNCC3)cc2)ncc1Br` [Compound E24, 2-((5-Bromo-2-((4-(piperazin-1-yl)phenyl)amino)pyrimidin-4-yl)amino)-N-methylbenzamide], the pIC50 was 7.00 to 8.30.
As for `CN(C)C1Cc2ccc(Nc3ncc(C(F)(F)F)c(NC4CC4)n3)cc2C1` (stereo not drawn) [Compound D6], the pIC50 is more than 8.30.
Regarding `COc1cc(Nc2ncc(Br)c(Nc3ccccc3CN3CCN(C)CC3)n2)cc(OC)c1OC` [Compound C20], the pIC50 was less than 7.00.
Same read-out and setting: with `COc1cc(Nc2ncc(Br)c(Nc3ccccc3CN(C)CCO)n2)cc(OC)c1OC` [Compound C23] the figure was less than 7.00.

Broadly, the pIC50 is the IC50 on a negative log10 scale, so that one unit is a factor of ten.
